For data set [1], the system named is BIDPI (common blackjack). As to the kind of experiment: Greenhouse herbicidal action, postemergence treatment, BIDPI. Format: in vivo. The source says: (§1) The herbicidal action of the 2-phenylpyridazin-3-one compounds of the formula I could be shown by means of greenhouse experiments: […]
(§2) The cultivation containers used were plastic pots containing loamy sand with approximately 3.0% of humus as a substrate. The seeds of the test plants were sown separately according to species.
(§3) For the purpose of postemergence treatment, the test plants were first raised up to a growth height of 3 to 15 cm, depending on growth form, and then treated with the active compounds suspended or emulsified in water. For this, the test plants were either sown directly and raised in the same containers or they were first raised separately as seedlings and transplanted into the experimental containers a few days before the treatment. The application rate for the postemergence treatment was 31.2 or 15.6 g of a.S./ha.
(§4) The plants were kept species-specifically at temperatures from 10-25° C. or 20-35° C. The experimental period extended over 2 to 4 weeks. During this time, the plants were tended, and their reaction to the individual treatments was assessed.
(§5) Assessment was carried out on a scale from 0 to 100. 100 here means no emergence of the plants or complete destruction of at least the above-ground parts and 0 means no damage or normal course of growth.
(§6) The plants used in the greenhouse experiments were made up of the following species: […]

Data set [2] concerns SETFA (Faber's foxtail). Nature of the data set: Greenhouse herbicidal action, postemergence treatment, SETFA. It is filed as in vivo.
Excerpt: as §1, §2, §3, §4, §5, §6

The record followed here is patent publication US20030162662A1, “2-Phenyl-2h-pyridazine-3-ones” (priority 2000, published 2003).

What is called melting point is the temperature of the solid-liquid transition.

On to `CCOC(=O)C=Cc1cc(-n2ncc(C(F)(F)F)c(C)c2=O)c(F)cc1Cl` [Example I-658 of WO 97/07104, reference compound], for which the “herbicidal action against BIDPI (scale 0 to 100; 100 = complete destruction, 0 = no damage)” value in data set [1] (application rate 15.6 g/ha) and in data set [1] (application rate 31.2 g/ha) was 30% each time. In addition, the “herbicidal action against SETFA (scale 0 to 100; 100 = complete destruction, 0 = no damage)” value in data set [2] (application rate 15.6 g/ha) is 80%.
`CCOC(=O)C(Cl)=Cc1cc(-n2ncc(C(F)(F)F)c(C)c2=O)c(F)cc1Cl` [Ia.3, 2-[4-Chloro-2-fluoro-5-(2-ethoxycarbonyl-2-chloroethen-1-yl)-phenyl]-4-methyl-5-trifluoromethyl-2H-pyridazin-3-one]: the “herbicidal action against BIDPI (scale 0 to 100; 100 = complete destruction, 0 = no damage)” value in data set [1] (application rate 15.6 g/ha) is 80%; in data set [1] (application rate 31.2 g/ha), 100%. Besides, the “herbicidal action against SETFA (scale 0 to 100; 100 = complete destruction, 0 = no damage)” value in data set [2] (application rate 15.6 g/ha) and in data set [2] (application rate 31.2 g/ha) was 100% throughout.
For `COC(=O)/C(Cl)=C/c1cc(-n2ncc(C(F)(F)F)c(C)c2=O)c(F)cc1Cl` [Ib.2], the melting point was 121 to 123 °C.
Regarding `Cc1c(C(F)(F)F)cnn(-c2cc(/C=C(\Cl)C(N)=O)c(Cl)cc2F)c1=O` [Ib.30], the melting point was 128 to 129 °C.
